“Also recorded” adds a separate entry of the source.

Data on 5 substances can be found in patent US11142550B2, “Split inteins with exceptional splicing activity” (THE TRUSTEES OF PRINCETON UNIVERSITY, priority 2016, dated 2021).

The subject of one series is Cfa^C-CFN. Kind of series: protein trans-splicing of extracted inclusion body under denaturing conditions. The series is classed as biochemical. The settings on record: extracted from inclusion bodies with 6M urea. On the procedure:
E. coli inclusion bodies containing His6-Sumo-Cfa^N expression (plasmid 20) were resuspended and extracted overnight at 4° C. in lysis buffer containing 6M urea. Following centrifugation (35,000 rcf, 30 min), the supernatant was removed and the protein enriched by Ni-NTA under denaturing conditions (as described above). However, instead of refolding the protein, trans-splicing was directly initiated by the addition of Cfa^C-CFN (10 μM Cfa^C, 2 mM TCEP, 2 mM EDTA, 2 hrs, RT). Reaction progress was monitored by SDS-PAGE.

Series [1] relates to split intein constructs with short native extein sequences. Description: in vitro protein trans-splicing (PTS) assay, RP-HPLC / ESI-MS kinetics. The series is classed as biochemical. The text has this:
Thus, attention was focused on ‘second shell’ residues, those directly adjacent to the active site. To simplify this analysis, a batch mutagenesis strategy was employed in conjunction with a previously reported in vitro PTS assay.^5 This assay uses split intein constructs with short native extein sequences and allows the rates of branched intermediate formation (k1,k2) and its resolution to final splice products (k3) to be determined using a three state kinetic model.
Splicing reactions were carried out as adapted from a previously described protocol. Briefly, N- and C-inteins (15 μM Int^N, 10 μM Int^C) were individually preincubated in splicing buffer (100 mM sodium phosphates, 150 mM NaCl, 1 mM EDTA, pH 7.2) with 2 mM TCEP for 15 minutes. All splicing reactions were carried out at 30° C. unless otherwise indicated. Splicing reactions comparing the tolerance of Npu and Cfa to chaotropic agents were carried out with the indicated concentration of either Urea or guanidine hydrochloride. Splicing was initiated by mixing equal volumes of N- and C-inteins with aliquots removed at the indicated times and quenched by the addition of 8M guanidine hydrochloride, 4% TFA (3:1 v/v). For all splicing reactions containing either Npu^C-CFN or Cfa^C-CFN, reaction progress was monitored by RP-HPLC. […] (15 minute preincubation) were both observed to be inefficient, reaching ˜50% completion. This is likely due to aggregation (and inactivation) of the N-intein. Note, shorter preincubations of Cfa at 80° C. led to more efficient splicing.
Kinetic analysis was carried out as previously described.^1 Briefly, five species (1-5) are separated by RP-HPLC, and peak areas are determined. For ESI-MS, peak areas are calculated for species 1-4. Each individual peak was normalized against the total area of all peaks combined and reaction progress curves were plotted (n=3). The data were then fit in ProFit to the analytical solution to the coupled differential rate equation for the three state kinetic splicing model. Because the starting material cannot be separated from the linear thioester using this assay, the three state kinetic model collapses the binding step and the first two steps of the splicing reaction into one equilibrium. Each splicing reaction was carried out in triplicate with each replicate analyzed separately. The mean and standard deviation for all values (n=3) are reported.
All splicing reactions comparing Npu and Cfa were separated by RP-HPLC with peak areas once again calculated using the manufacturer's software. For these reactions, peak areas for the starting material and branched intermediate (species 1 and 2) and product (species 3, 4, 5) were calculated. The data was then fit to the first order rate equation using the GraphPad Prism software. [P](t)=[P]max·(1−e^−kt)
Where [P] is the normalized intensity of product, [P]max is this value at t=∞ (the reaction plateau), and k is the rate constant (s^−1). The mean and standard deviation (n=3) are reported.

Series [2] in a line: refolding of N-inteins by stepwise dialysis. The series is classed as physicochemical. The settings on record: stepwise dialysis into lysis buffer, 4° C. The procedure:
The N-inteins were refolded by stepwise dialysis into lysis buffer with 0.5 mM DTT at 4° C. This refolded protein was then treated with 10 mM TCEP and Ulp1 protease (overnight, RT) to cleave the His6-SUMO expression tag. The solution was then mixed with 4 mL Ni-NTA resin and incubated for 30 minutes at 4° C. The slurry was applied to a fritted column and the flow through was collected together with a 3 CV wash with lysis buffer. The protein was then treated with 10 mM TCEP, concentrated to 10 mL, and further purified by size exclusion chromatography using an S75 16/60 gel filtration column employing degassed splicing buffer (100 mM sodium phosphate, 150 mM NaCl, 1 mM EDTA, pH 7.2) as the mobile phase. Fractions were analyzed by SDS-PAGE, analytical RP-HPLC, and ESI-MS. Pure protein was stored by flash-freezing in liquid N2 following the addition of glycerol (20% v/v).

Series [3] concerns split aminoglycoside phosphotransferase (KanR) in E. coli. Kind of series: protein splicing coupled kanamycin resistance (Kan^R) assay. The class given is cell-based. The following applies: +2 position of the C-extein. On the procedure:
The protein splicing coupled kanamycin resistance (Kan^R) assay was carried out as previously described.^2,9 Briefly, a plasmid coding for a fragmented aminoglycoside phosphotransferase fused to a split intein (Cfa) with either F, G, R, or E present at the +2 position of the C-extein (plasmids 22-25) was transformed into DH5α competent cells and grown in starter cultures overnight (LB Broth, 100 μg/mL ampicillin, 18 hrs). These cultures were then diluted twenty-fold into a 96 well plate, and E. coli growth was measured at various concentrations of kanamycin (2.5, 10, 25, 50, 100, 250, 1000 μg/mL kanamycin with 100 μg/mL ampicillin). The cell optical density at 650 nm (OD650) at the 24-hour end point was fit to a dose response curve with variable slope.
Where ODmin was fixed to background absorbance at 650 nm. Each assay was carried out in triplicate, fit separately, and IC50 values are reported as the mean and standard deviation of IC50 for these three separate measurements.
The kanamycin resistance protein, KanR, is split and fused to N- and C-intein fragments (Cfa^N and Cfa^C). The +2 C-extein residue (red X) is varied in the system. In Panel B, IC50 values for kanamycin resistance of the CfaEKD (WT) and CfaGEP (GEP) inteins with indicated +2 C-extein residue are shown (error=standard error (n=3)).

For series [4], the system named is split intein constructs with short native extein sequences. The settings on record: 30° C.; cited from earlier work.

On to “Cfa^N fusion: model fusion protein His6-SUMO-AEY-Cfa^N; plasmid 20, SEQ ID NO: 381”, for which the “modification by PTS without refolding” value with Cfa^C-CFN is recorded as “efficiently, modified by PTS”.

Regarding “A136S: A136S point mutant on the Ssp^C intein; plasmid 19, SEQ ID NO: 379 [Compound A136S]”, in series [1] (mutation on Ssp^C), the “effect of mutation on branch formation” value was “no impact” and the “effect of mutation on rate of branch resolution” value is “two fold”.

Consider “Batch 3: Ssp^N batch mutant (S23E, E24K, E25R, N27E); plasmid 13, SEQ ID NO: 373”, for which, in series [1] (30° C.), the splicing completion is reported as ~50%. The “precipitation during the refolding step” value in series [2] is on record as “significant protein precipitation was observed”.

Take “Cfa: consensus fast DnaE split intein; Cfa^N SEQ ID NO: 2, Cfa^C SEQ ID NO: 3”: the “C-extein +2 residue preference” value in series [3] was “retains the preference for a bulky hydrophobic residue”. In addition, the “splicing rate constant k (residual activity)” value in series [1] (4M GuHCl) was 7e-05 s⁻¹. In addition, the splicing in urea result in series [1] (8M urea) was “largely unaffected”. Moreover, in series [1] (30° C., relative to Npu), the “branch formation rate, increase over Npu” value is 3 fold; the “branch resolution rate, increase over Npu” value worked out at 2 fold; the “splices faster than Npu” value is reported as 2.5 fold. Further, in series [1] (80° C.), the “splicing activity at 80° C.” value is recorded as “maintains activity at 80° C., albeit with reduced yield of splice products”. In addition, the splicing completion in series [1] (80° C., 15 minute preincubation) is listed as ~50%. For the same substance, the “GuHCl concentration up to which the intein splices” value in series [1] (guanidine hydrochloride added) is given as “up to 4 M”. Moreover, in series [1] (up to 3M GuHCl), the “splicing activity in GuHCl” value is on record as “little decrease in activity”.

Turning to “Npu: DnaE split intein from Nostoc punctiforme PCC73102; SEQ ID NO: 5 and 6 [reference compound]”, the splicing in urea result was “inactive” in series [1] (8M urea) and “falls off dramatically” in series [1] (above 4M urea). Besides, the “splicing activity at 80° C.” value in series [1] (80° C.) was “inactive”. For the same substance, the “splicing activity in GuHCl” value in series [1] (≥3M GuHCl (3M in FIG. 2 legend)) was “no activity was observed; also recorded: inactive”. The “rate of protein trans-splicing (PTS), t1/2” value in series [4] is listed as 50 s.
